Read-outs that look alike come from different tables or passages of the source.
How the values were obtained:
[1] = Acute toxicity test in the mouse (oral); conditions: in vivo, read-out: Mortalité en %
From the text: 1. Tests de toxicité aiguë chez la souris
Les résultats sont rapportés dans le tableau 1.

[2] = test system: canal déférent isolé de rat; test: α-adrenolytic action in vitro: antagonism of noradrenaline-induced contractions of isolated rat vas deferens (pA2); type: cell-based; conditions: pA2 against noradrenaline, read-out: Action α-bloquante vis-à-vis de la noradrénaline PA2 sur canal déférent isolé (converted)
From the text: 2. Détermination de l'action α-adrénolytique "in vitro" sur le canal déférent du rat.
La noradrénaline provoque des contractions du canal déférent isolé de rat. La présence dans le bain de l'organe de substances α-bloquantes antagonise ces contractions.
L'utilisation de concentrations croissantes de substances α-bloquantes permet de calculer : . la PA₂ des composés sur le canal déférent de rat.
La PA₂ étant le logarithme changé de signe de la concentration molaire des produits B 1O2O - B 1O21 - B 1O37 - -B 1O59 en présence de laquelle il faut multiplier par deux la concentration de noradrénaline pour obtenir le même effet qu'en l'absence dudit produit.

[3] = test system: récepteurs α-adrénergiques; test: Adrenolytic activity in vivo in the rat: protection against death induced by i.v. noradrenaline; conditions: 50 mg/kg P.O, 30 min before i.v. noradrenaline (0,4 mg/kg)
Description: 3. Détermination de l'activité adrénolytique "in vivo" chez le rat
. La noradrénaline injectée à fortes doses par voie intraveineuse provoque la mort de 1OO % des animaux dans les 15 min qui suivent son injection. La mort survient par oedème pulmonaire dû à l'hypertension artérielle induite principalement par la stimulation des récepteurs α-adrénergiques.
. L'administration préalable de substances α-adrénolytiques par voie orale permet de réduire la toxicité de la noradrénaline.
Les produits B 1O2O - B 1O21 - B 1O37 - B 1O59 sont administrés par voie orale 3O min avant l'injection intraveineuse de noradrénaline (O,4 mg/kg).

[4] = test system: effet hypertenseur de la noradrénaline; test: Urethral specificity of alpha-blocking activity in vivo in the rabbit: inhibition of noradrenaline-induced rise of arterial and urethral pressure; parameters: species or system lapin; conditions: for ED50: Oryctolagus cuniculus, intravenous administration; for R DI50 (a) DI50 (u): ratio of arterial DI50 to urethral DI50
From the text: 4. Spécificité urétrale de l'activité alpha bloquante déterminée in vivo chez le lapin :
a) - Principe de la mesure
. La noradérnaline (I.V.) provoque des augmentations dépendantes des doses de la pression artérielle et de la pression urétrale. Les substances adrénolytiques alpha antagonisent ces augmentations de pression.
. Pour les produits B 1020 - B 1037 et B 1059 administrés par voie veineuse, nous avons déterminé les doses inhibant de 50 p. cent (DI₅₀ ) l'effet de la noradrénaline au niveau artériel et urétral et évaluer le rapport R de ces DI₅₀ .

[5] = arterial pressure, read-out: Doses inhibant de 50 p.cent (DI50) l'effet hypertenseur de la noradrénaline au niveau artériel DI50 (a)
[6] = urethral pressure, read-out: Doses inhibant de 50 p.cent (DI50) l'effet hypertenseur de la noradrénaline au niveau urétral DI50 (u)

For `CC(=O)Oc1cc(C(C)C)c(OCCCN2CCCCC2)cc1C` [B 1059, chlorhydratede l'acétoxy-2-[(pipéridino-3)propoxy]-5 p.cymène], which mortality ([1]; 100 mg/kg) is on record?
Its mortality is 0%.

And the mortality ([1]; 1000 mg/kg)?
Its mortality is 100%.

And the Kb [2]?
Its Kb is 126 nM.

What about the “% de protection contre la mort” value [3] of the same compound?
Its value is 50%.

What about the ED50 [4, 5] of the same compound?
Its ED50 is over 3 mg/kg.

What about the ED50 [4, 6] of the same compound?
Its ED50 is 0.8 mg/kg.

And the “R DI50 (a) DI50 (u)” value [4]?
The value was > 3,7.

Which mortality ([1]; 100 mg/kg) does the source give for `CC(=O)c1cc(C(C)C)c(OCCCN2CCCCC2)cc1C` [B 1021, chlorhydratede l'acétyl-2-[(pipéridino-3)propoxy]-5 p.cymène] here?
The mortality was 20%.

And the mortality ([1]; 1000 mg/kg)?
Its mortality is 100%.

And the Kb [2]?
Its Kb is 1740 nM.

And the “% de protection contre la mort” value [3]?
The value was 40%.

For `CC(=O)Oc1cc(C(C)C)c(OCCN(C)C)cc1C` [Thymoxamine, chlorhydrate de thymoxamine, reference compound], which mortality ([1]; 100 mg/kg) is on record?
The mortality was 0%.

And the mortality ([1]; 1000 mg/kg)?
Its mortality is 100%.

What about the Kb [2] of the same compound?
Its Kb is 56.2 nM.

What about the “% de protection contre la mort” value [3] of the same compound?
Its value is 80%.

And the ED50 [4, 5]?
Its ED50 is 2.9 mg/kg.

And the ED50 [4, 6]?
Its ED50 is 0.7 mg/kg.

And the “R DI50 (a) DI50 (u)” value [4]?
The value was 4,1.

What does the source list for `Cc1ccc(C(C)C)c(OCCCN2CCCCC2)c1` [B 1020, chlorhydrate du [(pipéridino-3)propoxy]-3 p.cymène]?
mortality ([1]; 100 mg/kg): 0%; mortality ([1]; 1000 mg/kg): 40%; Kb [2]: 302 nM; % de protection contre la mort [3]: 80%; ED50 [4, 5]: > 3 mg/kg; ED50 [4, 6]: 1.7 mg/kg; R DI50 (a) DI50 (u) [4]: > 1,7

With `Cc1cc(OCCCN2CCCCC2)c(C(C)C)cc1O` [B 1037, chlorhydratede l'hydroxy-2-[(pipéridino-3)propoxy]-5 p.cymène] as the compound, how does the mortality ([1]; 100 mg/kg) read?
Its mortality is 0%.

And the mortality ([1]; 1000 mg/kg)?
Its mortality is 100%.

And the Kb [2]?
The Kb was 151 nM.

What about the “% de protection contre la mort” value [3] of the same compound?
The value was 50%.

And the ED50 [4, 5]?
Its ED50 is over 3 mg/kg.

And the ED50 [4, 6]?
Its ED50 is 0.5 mg/kg.

What about the “R DI50 (a) DI50 (u)” value [4] of the same compound?
Its value is over 6.

From patent EP0237411A1, “(Piperidino-3)propoxy-5p-cymene, its acetyl, acetoxy and hydroxy derivatives, salts of these products, process for the preparation of these compounds and medicines containing at least one of these products as active principle” (INSTITUT DE RECHERCHES CHIMIQUES ET BIOLOGIQUES APPLIQUEES …, priority 1986, dated 1987)
